According to patent US20170044208A1, “SELECTIVE GLUCOCORTICOID RECEPTOR LIGANDS” (The University of Manchester, priority 2013, published 2017):

How the values were obtained:
[1] = target: T1, progesterone receptor (Homo sapiens, UniProt P06401); conditions: cited from earlier work
T1 sequence (P06401 1-933): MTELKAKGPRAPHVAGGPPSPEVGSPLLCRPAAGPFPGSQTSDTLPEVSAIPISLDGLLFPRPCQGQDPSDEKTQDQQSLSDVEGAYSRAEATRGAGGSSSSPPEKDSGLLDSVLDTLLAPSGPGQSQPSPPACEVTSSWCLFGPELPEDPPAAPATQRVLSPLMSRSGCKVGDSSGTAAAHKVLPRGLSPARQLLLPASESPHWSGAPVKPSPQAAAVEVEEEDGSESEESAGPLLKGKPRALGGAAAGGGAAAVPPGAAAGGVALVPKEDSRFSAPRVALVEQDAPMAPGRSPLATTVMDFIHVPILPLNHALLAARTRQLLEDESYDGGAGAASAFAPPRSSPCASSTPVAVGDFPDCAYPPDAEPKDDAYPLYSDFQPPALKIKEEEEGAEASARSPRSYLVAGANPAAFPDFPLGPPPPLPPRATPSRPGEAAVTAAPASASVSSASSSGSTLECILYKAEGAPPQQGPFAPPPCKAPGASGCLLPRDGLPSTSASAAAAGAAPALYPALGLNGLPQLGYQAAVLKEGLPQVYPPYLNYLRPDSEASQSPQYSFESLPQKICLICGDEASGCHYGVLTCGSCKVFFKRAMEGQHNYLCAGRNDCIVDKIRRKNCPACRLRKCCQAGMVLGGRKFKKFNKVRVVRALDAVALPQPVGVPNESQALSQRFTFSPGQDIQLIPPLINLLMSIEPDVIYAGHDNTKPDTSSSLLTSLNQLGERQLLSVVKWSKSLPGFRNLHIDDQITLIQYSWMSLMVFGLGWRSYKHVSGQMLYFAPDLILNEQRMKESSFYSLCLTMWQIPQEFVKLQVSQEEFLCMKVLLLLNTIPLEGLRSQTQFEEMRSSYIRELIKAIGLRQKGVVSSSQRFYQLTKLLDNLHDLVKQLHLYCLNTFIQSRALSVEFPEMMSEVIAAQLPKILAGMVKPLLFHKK

[2] = target: T2, GR (Homo sapiens, UniProt P04150); conditions: further analyses, Vayssiere et al. 1997; cited from earlier work
T2 sequence (P04150 1-777): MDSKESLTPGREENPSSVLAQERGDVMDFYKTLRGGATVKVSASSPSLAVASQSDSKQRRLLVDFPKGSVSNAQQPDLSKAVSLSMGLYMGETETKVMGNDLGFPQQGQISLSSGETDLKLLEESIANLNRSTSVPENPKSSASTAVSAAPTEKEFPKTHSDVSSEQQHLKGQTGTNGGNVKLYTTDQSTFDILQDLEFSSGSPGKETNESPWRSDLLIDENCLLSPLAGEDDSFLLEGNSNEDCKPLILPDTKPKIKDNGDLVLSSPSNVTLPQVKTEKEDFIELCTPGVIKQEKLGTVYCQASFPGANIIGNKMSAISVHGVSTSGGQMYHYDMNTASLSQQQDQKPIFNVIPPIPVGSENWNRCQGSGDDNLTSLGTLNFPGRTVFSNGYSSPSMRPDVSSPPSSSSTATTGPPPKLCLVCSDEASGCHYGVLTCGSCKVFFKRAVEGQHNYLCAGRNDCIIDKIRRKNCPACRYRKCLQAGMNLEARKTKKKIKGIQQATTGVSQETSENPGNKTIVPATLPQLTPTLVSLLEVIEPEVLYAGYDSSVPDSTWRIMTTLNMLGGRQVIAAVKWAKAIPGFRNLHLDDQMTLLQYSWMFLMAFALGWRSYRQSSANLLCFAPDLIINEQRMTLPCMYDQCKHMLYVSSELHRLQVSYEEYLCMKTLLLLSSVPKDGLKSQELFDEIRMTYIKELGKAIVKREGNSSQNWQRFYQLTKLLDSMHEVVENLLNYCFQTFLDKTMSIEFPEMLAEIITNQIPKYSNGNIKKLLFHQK

[3] = test system: apoptosis; conditions: cited from earlier work
[4] = target: T3, Glucocorticoid Receptor (GR) (Homo sapiens, UniProt P04150); assay: Transactivation assay (MMTV-Luc reporter in HeLa cells); assay type: cell-based; conditions: HeLa; for Emax: 16 h, read-out: TA Max %; for EC50: concentration for half-maximal transactivation, MMTV-Luc, 16 hours, mean, read-out: TA EC50
T3 construct: Cells were transfected the next day with MMTV-Luc (5 μg) and pGL4-hRLuc (0.1 μg); endogenous in cells; host or cells: HeLa
T3 sequence (P04150 1-777): T2 sequence (P04150 1-777)
Procedure: (§1) HeLa cells were seeded at 80×10^4 cells/dish in 100 mm dishes. Cells were transfected the next day with MMTV-Luc (5 μg) and pGL4-hRLuc (0.1 μg), in 250 μL of Opti-MEM I using FuGENE HD (15 μL). After 24 hours, cells were trypsinized and seeded into 96-well plates at a density of 8-10×10^4 cells/mL.
Following overnight incubation to allow attachment, cells were treated with the required concentration of compounds, then further incubated for 16 hours. Media was aspirated and cells lysed in 40 μL of 1×PLB.
(§2) Firefly and Renilla luciferase activity was measured using the Dual Luciferase Reporter system following the manufacturer's protocol.
(§3) IC50 and EC50 values were calculated by using GraphPad Prism 5.0. Briefly, luminescence values for luciferase were normalised using the Renilla luminescence values. The normalised values were input into GraphPad Prism 5.0. Non-linear regression analysis was carried out using the “log(concentration) vs. response” equation of the software, with a Hill slope coefficient fixed at 1.
(§4) IC50 and EC50 values are mean values in nM of all IC50/EC50 values for the compound. Max % values are mean values of the Max% activity.

[5] = test system: NFkB; assay: Transrepression assay (NFκB-LUC reporter in HeLa cells, TNF stimulated); assay type: cell-based; conditions: Homo sapiens, HeLa; for Emax: 16 h, read-out: TR Max %; for IC50: concentration for half-maximal repression of NFkB, TNF 0.5 ng/mL, 16 hours, mean, read-out: TR IC50
Procedure: as §1, with “NFκB-LUC reporter” for “MMTV-Luc”, “0.25 mL” for “250 μL”, “in to 24-well” for “into 96-well”, “cells/mL. Following overnight incubation, cells were starved for a further 24 hours in DMEM.” for “cells/mL.”
On the day of the experiment, compounds were added to cells one hour prior to the addition of […] (0.5 ng/mL). After a further 16 hours, cells were washed twice with ice-cold PBS, then lysed with 100 μL of 1×PLB.
as §2, §3, §4

SMILES	progesterone receptor activation [1]	GR agonist character [2]	induction of apoptosis [3]	Emax [4] [%]	Emax [5] [%]	IC50 [5] [nM]	EC50 [4] [nM]
C[C@@H]1C[C@H]2[C@@H]3CCC4=CC(=O)C=C[C@]4(C)[C@@]3(F)[C@@H](O)C[C@]2(C)[C@H]1C(=O)CC#N [RU24858]	activating the progesterone receptor	low potency, low efficacy full agonist	does not induce apoptosis				
C[C@@H]1C[C@H]2[C@@H]3CCC4=CC(=O)C=C[C@]4(C)[C@@]3(F)[C@@H](O)C[C@]2(C)[C@@]1(O)c1csc(NC(=O)c2ncco2)n1 [Compound 33]				0	32.7	66.9	
CCOc1ccc(C(=O)Nc2nc([C@@]3(O)[C@H](C)C[C@H]4[C@@H]5CCC6=CC(=O)C=C[C@]6(C)[C@@]5(F)[C@@H](O)C[C@@]43C)cs2)cc1 [Compound 46]				9.95	55.1	27	6650
C[C@@H]1C[C@H]2[C@@H]3CCC4=CC(=O)C=C[C@]4(C)[C@@]3(F)[C@@H](O)C[C@]2(C)[C@@]1(O)c1csc(NC(=O)c2ccccc2F)n1 [Compound 28]				0	36	120	29400
C[C@@H]1C[C@H]2[C@@H]3CCC4=CC(=O)C=C[C@]4(C)[C@@]3(F)[C@@H](O)C[C@]2(C)[C@@]1(O)C(=O)NCCCc1ccccc1 [Compound 11]				36.5	88.8	30.2	114
C[C@@H]1C[C@H]2[C@@H]3CCC4=CC(=O)C=C[C@]4(C)[C@@]3(F)[C@@H](O)C[C@]2(C)[C@@]1(O)c1csc(NC(=O)c2cnco2)n1 [Compound 41]				1.27	26	41.8	10300
C[C@@H]1C[C@H]2[C@@H]3CCC4=CC(=O)C=C[C@]4(C)[C@@]3(F)[C@@H](O)C[C@]2(C)[C@@]1(O)c1csc(NC(=O)c2ccc[nH]2)n1 [Compound 37]				3.22	31.4	17.9	2770
C[C@@H]1C[C@H]2[C@@H]3CCC4=CC(=O)C=C[C@]4(C)[C@@]3(F)[C@@H](O)C[C@]2(C)[C@@]1(O)C(=O)NCCCc1ccc(F)cc1 [Compound 1]				21.3	90.8	8.41	868
